Assay results as given in ChEMBL document CHEMBL1201862, “PubChem BioAssay data set” (2004).
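Exposure lasted 48 hours, with cells grown in 96-well plates and compounds tested at five concentrations. GI50 = concentration required for 50% inhibition of growth.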 Active and inactive are the calls of the source. No stated cut-off is given here; in the data, active = GI50 up to about 1.1 µM and inactive = higher.

Tests used:
Test in all cases: NCI anticancer screen, dose series, 48 h
[1] = system: M14
[2] = system: LXFL 529
[3] = system: OVCAR-5
[4] = system: COLO 205
[5] = system: HOP-62
[6] = system: ACHN
[7] = system: HT-29
[8] = system: SK-MEL-2
[9] = system: LOX IMVI
[10] = system: OVCAR-8
[11] = system: NCI-H226
[12] = system: DLD-1
[13] = system: HOP-18
[14] = system: SNB-78
[15] = system: HCT-116
[16] = system: 786-0
[17] = system: SR
[18] = system: NCI-H23
[19] = system: HL-60
[20] = system: RXF 393
[21] = system: SF-295
[22] = system: HCT-15
[23] = system: SK-MEL-28
[24] = system: NCI-H460
[25] = system: SF-268
[26] = system: M19-MEL
[27] = system: UACC-257
[28] = system: TK-10
[29] = system: UACC-62
[30] = system: SF-539
[31] = system: K562
[32] = system: RXF 631
[33] = system: SW-620
[34] = system: KM-20L2
[35] = system: U-251
[36] = system: SNB-19
[37] = system: KM12
[38] = system: UO-31
[39] = system: DMS-114
[40] = system: HOP-92
[41] = system: SK-OV-3
[42] = system: A549
[43] = system: OVCAR-3
[44] = system: IGROV-1
[45] = system: EKVX
[46] = system: CCRF-CEM
[47] = system: MOLT-4
[48] = system: Malme-3M
[49] = system: SN12C
[50] = system: A498
[51] = system: RPMI-8226
[52] = system: SNB-75
[53] = system: SK-MEL-5
[54] = system: NCI-H522
[55] = system: CAKI-1
[56] = system: DMS-273
[57] = system: HCC 2998
[58] = system: OVCAR-4

Question: With `Cc1ccc(NC(=O)CC/C(CC(=O)C(C)(C)C)=N\Nc2ccc([N+](=O)[O-])cc2[N+](=O)[O-])cc1C` as the compound, how does the GI50 [1] read?
Answer: 0.0129 µM (active)

Question: And the GI50 [2]?
Answer: 40.9 µM (inactive)

Question: What about the GI50 [3] of the same compound?
Answer: > 100 µM (inactive)

Question: And the GI50 [4]?
Answer: > 100 µM (inactive)

Question: And the GI50 [5]?
Answer: 0.0522 µM (active)

Question: And the GI50 [6]?
Answer: 45.8 µM (inactive)

Question: What about the GI50 [7] of the same compound?
Answer: 57 µM (inactive)

Question: What about the GI50 [8] of the same compound?
Answer: 76.4 µM (inactive)

Question: What about the GI50 [9] of the same compound?
Answer: 31.6 µM (inactive)

Question: And the GI50 [10]?
Answer: 59.6 µM (inactive)

Question: What about the GI50 [11] of the same compound?
Answer: > 100 µM (inactive)

Question: And the GI50 [12]?
Answer: 47.6 µM (inactive)

Question: And the GI50 [13]?
Answer: > 100 µM (inactive)

Question: And the GI50 [14]?
Answer: > 100 µM (inactive)

Question: And the GI50 [15]?
Answer: 50.5 µM (inactive)

Question: And the GI50 [16]?
Answer: 79.6 µM (inactive)

Question: What about the GI50 [17] of the same compound?
Answer: 39.7 µM (inactive)

Question: What about the GI50 [18] of the same compound?
Answer: 46.2 µM (inactive)

Question: What about the GI50 [19] of the same compound?
Answer: > 10 µM (inactive)

Question: And the GI50 [20]?
Answer: 67.5 µM (inactive)

Question: And the GI50 [21]?
Answer: 32.6 µM (inactive)

Question: And the GI50 [22]?
Answer: 41.5 µM

Question: What about the GI50 [23] of the same compound?
Answer: > 100 µM (inactive)

Question: And the GI50 [24]?
Answer: 56.8 µM (inactive)

Question: What about the GI50 [25] of the same compound?
Answer: > 100 µM (inactive)

Question: And the GI50 [26]?
Answer: 47.5 µM (inactive)

Question: And the GI50 [27]?
Answer: > 100 µM (inactive)

Question: And the GI50 [28]?
Answer: > 100 µM (inactive)

Question: What about the GI50 [29] of the same compound?
Answer: 32.2 µM (inactive)

Question: And the GI50 [30]?
Answer: 59.4 µM (inactive)

Question: And the GI50 [31]?
Answer: 28.3 µM (inactive)

Question: What about the GI50 [32] of the same compound?
Answer: > 100 µM (inactive)

Question: And the GI50 [33]?
Answer: 46.3 µM (inactive)

Question: And the GI50 [34]?
Answer: > 100 µM (inactive)

Question: And the GI50 [35]?
Answer: 58.1 µM (inactive)

Question: And the GI50 [36]?
Answer: > 100 µM (inactive)

Question: And the GI50 [37]?
Answer: 67.5 µM (inactive)

Question: What about the GI50 [38] of the same compound?
Answer: 53.2 µM (inactive)

Question: What about the GI50 [39] of the same compound?
Answer: 30 µM (inactive)

Question: And the GI50 [40]?
Answer: 27 µM (inactive)

Question: And the GI50 [41]?
Answer: > 100 µM (inactive)

Question: What about the GI50 [42] of the same compound?
Answer: 37.7 µM (inactive)

Question: And the GI50 [43]?
Answer: 0.0195 µM (active)

Question: And the GI50 [44]?
Answer: 90.6 µM (inactive)

Question: And the GI50 [45]?
Answer: > 100 µM (inactive)

Question: What about the GI50 [46] of the same compound?
Answer: 25.2 µM (inactive)

Question: What about the GI50 [47] of the same compound?
Answer: 28.8 µM (inactive)

Question: What does the source list for `O=S(=O)(CF)OCCCCOS(=O)(=O)CF`?
Answer: GI50 [1]: > 100 µM (inactive); GI50 [2]: > 100 µM (inactive); GI50 [48]: > 100 µM (inactive); GI50 [4]: > 100 µM (inactive); GI50 [6]: 20.4 µM (inactive); GI50 [7]: > 100 µM (inactive); GI50 [8]: > 100 µM (inactive); GI50 [9]: 97.1 µM (inactive); GI50 [10]: > 100 µM (inactive); GI50 [11]: > 100 µM (inactive); GI50 [49]: > 100 µM (inactive); GI50 [13]: > 100 µM (inactive); GI50 [14]: > 100 µM (inactive); GI50 [15]: > 100 µM (inactive); GI50 [18]: 97.9 µM (inactive); GI50 [19]: 13.2 µM (inactive); GI50 [50]: > 100 µM (inactive); GI50 [51]: > 100 µM (inactive); GI50 [21]: > 100 µM (inactive); GI50 [22]: > 100 µM; GI50 [23]: > 100 µM (inactive); GI50 [24]: 23.8 µM (inactive); GI50 [25]: > 100 µM (inactive); GI50 [26]: > 100 µM (inactive); GI50 [28]: > 100 µM (inactive); GI50 [29]: > 100 µM (inactive); GI50 [30]: > 100 µM (inactive); GI50 [31]: > 100 µM (inactive); GI50 [52]: 27.7 µM (inactive); GI50 [32]: > 100 µM (inactive); GI50 [53]: > 100 µM (inactive); GI50 [33]: > 100 µM (inactive); GI50 [34]: > 100 µM (inactive); GI50 [35]: > 100 µM (inactive); GI50 [36]: 95.3 µM (inactive); GI50 [38]: > 100 µM (inactive); GI50 [39]: 74 µM (inactive); GI50 [40]: 0.701 µM (active); GI50 [41]: > 100 µM (inactive); GI50 [54]: > 100 µM (inactive); GI50 [43]: > 100 µM (inactive); GI50 [55]: > 100 µM (inactive); GI50 [44]: > 100 µM (inactive); GI50 [45]: > 100 µM (inactive); GI50 [46]: 32.2 µM (inactive); GI50 [47]: 23.8 µM (inactive); GI50 [56]: 75.9 µM (inactive)

Question: Which results are given for `O=C1Nc2ccccc2N=CC1NC(=O)C(c1ccccc1)c1ccccc1` (stereo unspecified)?
Answer: GI50 [1]: > 100 µM (inactive); GI50 [2]: > 100 µM (inactive); GI50 [3]: > 100 µM (inactive); GI50 [48]: > 100 µM (inactive); GI50 [4]: > 100 µM (inactive); GI50 [5]: > 100 µM (inactive); GI50 [6]: > 100 µM (inactive); GI50 [7]: > 100 µM (inactive); GI50 [8]: > 100 µM (inactive); GI50 [9]: > 100 µM (inactive); GI50 [10]: > 100 µM (inactive); GI50 [11]: > 100 µM (inactive); GI50 [49]: > 100 µM (inactive); GI50 [12]: > 100 µM (inactive); GI50 [13]: > 100 µM (inactive); GI50 [14]: > 100 µM (inactive); GI50 [15]: > 100 µM (inactive); GI50 [16]: > 100 µM (inactive); GI50 [18]: > 100 µM (inactive); GI50 [19]: > 100 µM (inactive); GI50 [50]: > 100 µM (inactive); GI50 [20]: > 100 µM (inactive); GI50 [51]: > 100 µM (inactive); GI50 [21]: > 100 µM (inactive); GI50 [22]: > 100 µM; GI50 [23]: > 100 µM (inactive); GI50 [24]: > 100 µM (inactive); GI50 [57]: > 100 µM (inactive); GI50 [25]: > 100 µM (inactive); GI50 [26]: > 100 µM (inactive); GI50 [27]: > 100 µM (inactive); GI50 [28]: > 100 µM (inactive); GI50 [29]: > 100 µM (inactive); GI50 [30]: > 100 µM (inactive); GI50 [58]: > 100 µM (inactive); GI50 [31]: > 100 µM (inactive); GI50 [52]: > 100 µM (inactive); GI50 [32]: > 100 µM (inactive); GI50 [53]: > 100 µM (inactive); GI50 [33]: > 100 µM (inactive); GI50 [34]: > 100 µM (inactive); GI50 [35]: > 100 µM (inactive); GI50 [36]: > 100 µM (inactive); GI50 [37]: > 100 µM (inactive); GI50 [38]: > 100 µM (inactive); GI50 [39]: 86.5 µM (inactive); GI50 [40]: 32.5 µM (inactive); GI50 [41]: > 100 µM (inactive); GI50 [42]: > 100 µM (inactive); GI50 [54]: > 100 µM (inactive); GI50 [43]: > 100 µM (inactive); GI50 [55]: > 100 µM (inactive); GI50 [44]: > 100 µM (inactive); GI50 [45]: > 100 µM (inactive); GI50 [46]: > 100 µM (inactive); GI50 [47]: 79.3 µM (inactive); GI50 [56]: > 100 µM (inactive)
